Measurements reported in paper PMC8472287, “Betulinic Acid Decorated with Polar Groups and Blue Emitting BODIPY Dye: Synthesis, Cytotoxicity, Cell-Cycle Analysis and Anti-HIV Profiling” (Biomedicines, 2021).

What was measured:
U2OS-Nuc cell line = test: Live cell imaging, pilot experiment; type: cell-based, human; details: 10 µM, 1 h incubation
Procedure: (§1) U2OS cell line (ATCC, USA) was transduced with premade lentiviral particles (Vectalis-TaKaRa, Japan) with sequences that express fluorescent protein tag mCherry targeted to specific subcellular locations. All cell lines were prepared according to the vendor’s instructions. The U2OS-Nuc cell line was prepared by using rLV.EF1.mCherry-Nuc-9 (cat. n. 0023VCT), containing a NLS sequence that imports protein into the nucleus. The U2OS-ER cell line was transduced by rLV.EF1.mCherry-ER-9 (cat. n. 0025VCT), which contains a calreticulin signal sequence and a KDEL sequence that associates protein with the endoplasmic reticulum. The U2OS-GA cell line was transduced by rLV.EF1.mCherry-Golgi-9 (cat. n. 0022VCT), containing a human GT precursor, a protein localized in Golgi Apparatus. The U2OS-Mito cell line was prepared by using rLV.EF1.mCherry-Mito-9 (cat. n. 0024VCT), containing a mitochondrial targeting sequence.
(§2) U2OS cells with fluorescent fusion proteins (density 1.0 × 10^3 per well) were seeded into 384 CellCarrier plates (Perkin Elmer, Waltham, MA, USA) and pre-incubated for 24 h at 37 °C and 5% CO2. The attached cells were treated with tested compounds in concentration 10 µM for 1 h and subsequently rinsed with fresh media. The live-cell imaging was performed by Cell Voyager CV7000 (Yokogawa, Tokyo, Japan) spinning disc confocal microscopy system at 37 °C in a 5% CO2 atmosphere. Live cells were monitored by a 60 × water immersion objective. The fluorescent signal was excited by lasers (405 nm and 561 nm) and the emission was filtered by bandpass filters (BP 445/45 and BP 595/20). All images were post-processed, and Pearson’s and Mander’s coefficients were calculated using the JACoP plugin in Image-J software.

[1] = system: U2OS-ER, U2OS-Mito and U2OS-GA cell lines; test: Live cell colocalization experiments; type: cell-based, human; details: 10 µM, 1 h, Mander's coefficient
Procedure: as §1, §2

CCRF-CEM lymphoblasts [2] = test: BrDU incorporation analysis (DNA synthesis); type: cell-based, human; details: 24 h incubation
Procedure: Cells were cultivated as in the method above and pulse-labelled with 10 μM 5-bromo-2-deoxyuridine (BrDU) for 30 min before collection to the test tubes. The cells were washed with cold 1 × PBS and fixed in ice-cold 70% ethanol. Before analysis, they were washed with 1 × PBS and incubated in 2M HCl for 30 min at room temperature. Following neutralization with 0.1M Na2B4O7 (borax), the cells were washed with 0.5% Tween-20 and 1% BSA in 1 × PBS. The cell pellets were stained using a primary anti-BrdU antibody (Exbio, Vestec, Czech Republic) for 30 min at room temperature and a secondary anti-mouse-FITC antibody (Sigma). The samples were then incubated with propidium iodide (0.1 mg mL^−1), treated with RNase A (0.5 mg mL^−1) for 1 h at room temperature in the dark and analysed as above.

CCRF-CEM lymphoblasts [3] = test: BrU incorporation analysis (RNA synthesis); type: cell-based, human; details: 24 h, 5 × IC50 (high concentration)
[4] = system: VSV-G pseudotyped HIV-1 particles; test: microbe, parasite or virus in culture; type: cell-based; details: Human immunodeficiency virus 1, HEK293, 48 h, read-out: IC50i (50% infection inhibition)
HCT116 = test: MTS cytotoxicity assay, HCT116; type: cell-based; details: Homo sapiens, HCT-116, 72 h, 3-day incubation
Excerpt: (§3) All cells (if not indicated otherwise) were purchased from the American Tissue Culture Collection (ATCC; Manassas, VA, USA). The highly chemosensitive CCRF-CEM line is derived from T lymphoblastic leukaemia, K562 represent cells of chronic myelogenous leukaemia. Colorectal adenocarcinoma HCT116 cell line and its p53 gene knockout counterpart (HCT116p53−/−, Horizon Discovery Ltd., Cambridge, UK) were used as models to assess the impact of p53 deficiency on cell line sensitivity. A549 cells are derived from lung adenocarcinoma and U2OS from human osteosarcoma. CEM-DNR and K562-Tax are well-characterized daunorubicin and paclitaxel-resistant sublines of CCRF-CEM and K562. The CEM-DNR resistant cells overexpress the P-glycoprotein and LRP protein, the K562-Tax overexpress P-glycoprotein but is losing the expression of LRP, which is present at parental K562 cell line. P-glycoprotein belongs to the ABC transporters’ family and is involved in the primary and acquired multidrug resistance phenomenon by the efflux of toxic compounds, LRP protein is involved in the lysosomal degradation. MRC-5 and BJ cell lines were used as a non-tumour control and represent human fibroblasts. The cells were maintained in Nunc/Corning 80 cm^2 plastic tissue culture flasks and cultured in cell culture medium according to ATCC or Horizon recommendations (DMEM/RPMI 1640 with 5 g/L-glucose, 2 mM glutamine, 100 U/mL penicillin, […] streptomycin, 10% fetal calf serum, and NaHCO3).
(§4) To perform the cytotoxicity MTS assay, cell suspensions were prepared and diluted according to the cell type and the expected target cell density (25,000–35,000 cells/mL) based on cell growth characteristics. Cells were added by an automatic pipettor (30 μL) into 384 well microtiter plates. All tested compounds were dissolved in 100% DMSO and four-fold dilutions of the intended test concentration were added in 0.15 μL aliquots at time zero to the microtiter plate wells by the echo-acoustic liquid handler Echo550 (Labcyte, San Jose, CA, USA). The experiments were performed in technical duplicates and at least three biological replicates. The cells were incubated with the tested compounds for 72 h at 37 °C, in a 5% CO2 atmosphere at 99% humidity. At the end of the incubation period, the cells were assayed by using the MTS test. Aliquots (5 µL) of the MTS stock solution were pipetted into each well and incubated for an additional 1–4 h. After this incubation period, the optical density (OD) was measured at 490 nm with an Envision microplate reader (Perkin Elmer, Waltham, Massachusetts, USA). Tumour cell survival (TCS) was calculated using the following equation: TCS = (ODdrug-exposed well/mean ODcontrol wells) × 100%.

in vitro = details: human
K562 = test: MTS cytotoxicity assay, K562; type: cell-based; details: Homo sapiens, 72 h, 3-day incubation
Excerpt: as §3, §4

CCRF-CEM lymphoblasts [5] = test: Mitotic marker pH3Ser10 flow cytometry; type: cell-based, human; details: 5 × IC50
Procedure: (§5) CCRF-CEM cells were seeded in 6-well plates at a density of 1 × 10^6/well. […] Cells were then harvested, washed with cold 1 × PBS and fixed in ice-cold 70% ethanol. Fixed cells were incubated overnight at −20 °C, washed in hypotonic citrate buffer, treated with RNase (50 μg mL^−1) and incubated with propidium iodide for 15 min. DNA content was analysed using Becton Dickinson flow cytometer and cell cycle data were analysed in the program ModFitLT (Verity, Carrollton, TX, USA). Apoptosis was measured in a logarithmic model expressing the percentage of the particles with propidium content lower than cells in G0/G1 phase (<G1) of the cell cycle. The mitotic marker pH3Ser10 antibody (Sigma) and secondary anti-mouse-FITC antibody (Sigma) were used for labelling and subsequent flow cytometry analysis of ethanol-fixed CCRF-CEM cells.

CCRF-CEM lymphoblasts [6] = test: Cell cycle and apoptosis analysis (flow cytometry, propidium iodide); type: cell-based, human; details: 5 × IC50
Procedure: as §5

BJ = test: MTS cytotoxicity assay, BJ; type: cell-based; details: Homo sapiens, 72 h, BJ normal fibroblasts, 3-day incubation
Excerpt: as §3, §4

CEM-DNR = test: MTS cytotoxicity assay, CEM-DNR; type: cell-based; details: Homo sapiens, 72 h, CEM-DNR (daunorubicin resistant), 3-day incubation
Excerpt: as §3, §4

A549 = test: MTS cytotoxicity assay, A549; type: cell-based; details: Homo sapiens, 72 h, 3-day incubation
Excerpt: as §3, §4

MRC-5 = test: MTS cytotoxicity assay, MRC-5; type: cell-based; details: Homo sapiens, MRC5, 72 h, MRC-5 normal fibroblasts, 3-day incubation
Excerpt: as §3, §4

CCRF-CEM = test: MTS cytotoxicity assay, CCRF-CEM; type: cell-based; details: Homo sapiens, 72 h, 3-day incubation
Excerpt: as §3, §4

K562-Tax = test: MTS cytotoxicity assay, K562-Tax; type: cell-based; details: Homo sapiens, 72 h, K562-Tax (paclitaxel-resistant), 3-day incubation
Excerpt: as §3, §4

HCT116p53−/− = test: MTS cytotoxicity assay, HCT116p53−/−; type: cell-based; details: Homo sapiens, HCT116-p53-null, 72 h, HCT116p53−/− (null p53 gene), 3-day incubation
Excerpt: as §3, §4

[7] = system: CA-SP1 processing of HIV-1 Gag polyprotein; test: Western blot of released virions with anti-HIV-1 CA antibody; type: cell-based
U2OS = test: MTS cytotoxicity assay, U2OS; type: cell-based; details: Homo sapiens, 72 h, 3-day incubation
Excerpt: as §3, §4

| Compound | detection in living cells (U2OS-Nuc cell line) | colocalization with cellular structures [1] | fraction of proliferating BrDU positive CCRF-CEM cells (in words) (CCRF-CEM lymphoblasts [2]) | RNA synthesis by BrU (in words) (CCRF-CEM lymphoblasts [3]) | IC50 [4] | IC50 (HCT116) | IC50 (in vitro) | IC50 (K562) | rate of cell division by mitotic marker pH3Ser10 (in words) (CCRF-CEM lymphoblasts [5]) | increase of the percentage of cells in the S-phase compared to untreated control (CCRF-CEM lymphoblasts [6]) | IC50 (BJ) | IC50 (CEM-DNR) | IC50 (A549) | IC50 (MRC-5) | IC50 (CCRF-CEM) | IC50 (K562-Tax) | IC50 (HCT116p53−/−) | CA forms identified in released viruses (CA-SP1 processing) [7] | cytotoxic effect in the cell line panel (in words) (entire cell line panel) | IC50 (U2OS) |
| --- | --- | --- | --- | --- | --- | --- | --- | --- | --- | --- | --- | --- | --- | --- | --- | --- | --- | --- | --- | --- |
| NCCCNC1=C2C=CC=[N+]2[B-](F)(F)n2cccc21 [BODIPY-NH2, 8-N-(3-Aminopropyl)amino-4,4-difluoro-4-bora-3a,4a-diaza-s-indacene] | not detected |  |  |  |  |  |  |  |  |  |  |  |  |  |  |  |  |  |  |  |
| CSC1=C2C=CC=[N+]2[B-](F)(F)n2cccc21 [BODIPY-SMe, 8-thiomethyl BODIPY, reference compound] | penetrate cell compartments | perfect colocalization in all studied cell lines |  |  |  |  |  |  |  |  |  |  |  |  |  |  |  |  |  |  |
| C=C(C)[C@@H]1CC[C@]2(C(=O)NCCCN=[N+]=[N-])CC[C@]3(C)[C@H](CC[C@@H]4[C@@]5(C)CC[C@H](OC(=O)CC(C)(C)C(=O)O)C(C)(C)[C@@H]5CC[C@]43C)[C@@H]12 [Compound 2, 4-{[(3β)-28-[(3-Azidopropyl)amino]-28-oxolup-20(29)-ene-3-yl]oxy}-2,2-dimethyl-4-oxo-butanoic acid] |  |  | increased the percentage of cells incorporating BrDU | stalled RNA synthesis | 11.7 µM | 19.4 µM | 36.4 µM | 26 µM | low rate of cell division | about 50% | 25.3 µM | 10.2 µM | 22.9 µM | 24.2 µM | 8.14 µM | 15.9 µM | 29.2 µM | not only fully processed p24 CA, but also p25 CA-SP1 protein | medium cytotoxicity | 22.2 µM |
| C=C(C)[C@@H]1CC[C@]2(C(=O)NCCCNC3=C4C=CC=[N+]4[B-](F)(F)n4cccc43)CC[C@]3(C)[C@H](CC[C@@H]4[C@@]5(C)CC[C@H](O)C(C)(C)[C@@H]5CC[C@]43C)[C@@H]12 [Compound 4, (3β)-N-[N’-(4,4-Difluoro-4-bora-3a,4a-diaza-s-indacene-8-yl)-3-aminopropyl]-3-hydroxylup-20(29)-ene-28-amide] | detected in living cells | almost perfectly label mitochondria and endoplasmic reticulum |  |  | 44.1 µM | > 50 µM | > 40 µM | > 50 µM |  |  | > 50 µM | > 50 µM | > 50 µM | > 50 µM | 23.7 µM | > 50 µM | > 50 µM | Only completely processed p24 CA | inactive | > 50 µM |
| C=C(C)[C@@H]1CC[C@]2(C(=O)N3CCN(CCNC(=O)OC(C)(C)C)CC3)CC[C@]3(C)[C@H](CC[C@@H]4[C@@]5(C)CC[C@H](OC(C)=O)C(C)(C)[C@@H]5CC[C@]43C)[C@@H]12 [Compound 12, (3β)-28-(4-{2-[(Tert-butoxycarbonyl)amino]ethyl}piperazine-1-yl)-28-oxolup-20(29)-ene-3-yl acetate] |  |  | increased the percentage of cells incorporating BrDU |  | 31.9 µM | > 50 µM | > 40 µM | > 50 µM | low rate of cell division | about 50% | > 50 µM | > 50 µM | > 50 µM | > 50 µM | 9.62 µM | > 50 µM | > 50 µM | Only completely processed p24 CA | inactive | > 50 µM |
